# Data from the supplement of paper PMC10307832.
# Assays:
# Test in all cases: relative viability (nuclei count vs DMSO), 5 days (fraction); higher = more cells survive
# [1] = compound: COc1cc2ncn(-c3cc(OCc4ccccc4C(F)(F)F)c(C(N)=O)s3)c2cc1OC + CC1(C)CCC(c2ccc(Cl)cc2)=C(CN2CCN(c3ccc(C(=O)NS(=O)(=O)c4ccc(N[C@H](CCN5CCOCC5)CSc5ccccc5)c(S(=O)(=O)C(F)(F)F)c4)cc3)CC2)C1 [Navitoclax] (partner 0.5 µM)
# Outline: (§1)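 Lung cancer cell lines were pin-tool dosed in 1536-well plates on the day after seeding, with either a lone drug or a fixed anchor-drug dose plus five library-drug doses (not always all listed) in √10 steps. Nuclei were counted on 4× images after 5 days. Relative viability is the ratio of treated-well to vehicle-well nuclei counts, with each value a median of duplicate plates.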
# [2] = compound: COc1cc2ncn(-c3cc(OCc4ccccc4C(F)(F)F)c(C(N)=O)s3)c2cc1OC + CCNC(=O)c1noc(-c2cc(C(C)C)c(O)cc2O)c1-c1ccc(CN2CCOCC2)cc1 [Luminespib] (partner 0.01 µM)
# Outline: as §1
# [3] = compound: COc1cc2ncn(-c3cc(OCc4ccccc4C(F)(F)F)c(C(N)=O)s3)c2cc1OC + COc1cc2c(Oc3ccc(NC(=O)C4(C(=O)Nc5ccc(F)cc5)CC4)cc3F)ccnc2cc1OCCCN1CCOCC1 [Foretinib] (partner 0.25 µM)
# Outline: as §1
# [4] = compound: COc1cc2ncn(-c3cc(OCc4ccccc4C(F)(F)F)c(C(N)=O)s3)c2cc1OC + C[C@]1(O)C[C@@H](c2nc(-c3ccc4ccc(-c5ccccc5)nc4c3)c3c(N)nccn32)C1 [Linsitinib] (partner 1 µM)
# Outline: as §1
Cell Line,relative viability ([1]; first compound 0.05 µM),relative viability ([1]; first compound 0.1581 µM),relative viability ([1]; first compound 0.5 µM),relative viability ([1]; first compound 1.581 µM),relative viability ([1]; first compound 5 µM),relative viability ([2]; first compound 0.05 µM),relative viability ([2]; first compound 0.1581 µM),relative viability ([2]; first compound 0.5 µM),relative viability ([2]; first compound 1.581 µM),relative viability ([2]; first compound 5 µM),relative viability ([3]; first compound 0.05 µM),relative viability ([3]; first compound 0.1581 µM),relative viability ([3]; first compound 0.5 µM),relative viability ([3]; first compound 1.581 µM),relative viability ([3]; first compound 5 µM),relative viability ([4]; first compound 0.05 µM),relative viability ([4]; first compound 0.1581 µM),relative viability ([4]; first compound 0.5 µM),relative viability ([4]; first compound 1.581 µM),relative viability ([4]; first compound 5 µM)
NCI-H1734,0.824,0.806,0.35,0.133,0.0981,0.18,0.239,0.17,0.147,0.125,0.85,1.06,0.56,0.257,0.204,0.946,0.956,0.644,0.309,0.215
NCI-H1755,1.04,0.957,0.653,0.222,0.183,0.463,0.388,0.474,0.224,0.181,0.583,0.896,0.635,0.362,0.315,0.995,1.02,0.799,0.416,0.349
NCI-H1793,0.928,0.544,0.187,0.221,0.139,0.163,0.194,0.176,0.15,0.128,0.925,0.825,0.506,0.24,0.164,0.928,0.847,0.763,0.248,0.145
NCI-H1915,0.758,0.739,0.539,0.0643,0.0409,0.796,0.713,0.389,0.0805,0.0432,1.08,1.03,0.702,0.204,0.141,1.09,1.05,0.795,0.169,0.106
NCI-H1944,1.04,1.06,0.785,0.189,0.123,0.512,0.705,0.543,0.177,0.0836,0.804,1.03,0.743,0.221,0.131,1.2,1.15,0.923,0.257,0.171
NCI-H1975,0.88,1.01,0.529,0.168,0.174,0.229,0.26,0.184,0.163,0.233,0.932,0.961,0.516,0.155,0.138,1.01,0.877,0.531,0.207,0.196
NCI-H1993,1.22,0.912,0.602,0.507,0.503,0.756,0.8,0.548,0.463,0.448,0.652,0.884,0.662,0.579,0.569,0.835,0.782,0.572,0.56,0.528
NCI-H2009,1.14,1.07,0.666,0.0806,0.0608,1.03,0.941,0.819,0.127,0.101,1.07,1.1,0.89,0.354,0.248,1.19,1.11,0.918,0.208,0.22
NCI-H2023,0.977,1.1,0.867,0.0884,0.0956,0.735,0.679,0.299,0.0886,0.0831,0.765,0.799,0.725,0.416,0.0871,0.593,0.769,0.49,0.123,0.0804
NCI-H2085,1.2,1.09,0.593,0.367,0.365,0.37,0.401,0.357,0.273,0.253,0.931,1,0.566,0.294,0.31,0.885,0.731,0.601,0.168,0.416
NCI-H2087,1.04,0.974,0.194,0.136,0.134,0.174,0.177,0.162,0.14,0.167,1.16,1.21,0.261,0.117,0.128,0.995,0.981,0.307,0.168,0.195
NCI-H2126,0.856,0.834,0.662,0.284,0.225,0.957,0.875,0.532,0.288,0.265,1.21,1.26,0.672,0.365,0.318,0.721,0.772,0.587,0.292,0.264
NCI-H2228,1.05,1.3,0.167,0.0999,0.105,0.114,0.159,0.147,0.139,0.126,0.85,0.739,0.351,0.1,0.162,0.525,0.52,0.253,0.176,0.231
NCI-H2347,0.78,1.01,0.566,0.38,0.579,0.522,0.303,0.419,0.346,0.465,0.966,0.916,0.98,0.651,0.428,0.99,0.915,0.84,0.572,0.759
NCI-H2405,0.931,0.69,0.16,0.0992,0.0957,0.76,0.601,0.341,0.283,0.338,0.998,0.817,0.531,0.359,0.361,0.99,0.757,0.372,0.424,0.386
NCI-H3122,1.05,1.01,0.212,0.189,0.202,0.0893,0.0896,0.149,0.0746,0.0906,0.976,0.93,0.241,0.123,0.148,0.943,1.07,0.256,0.184,0.221
